Measurements published in patent publication US20150087627A1, “COMBINATION OF KINASE INHIBITORS AND USES THEREOF” (Intellikine LLC, priority 2011, published 2015).
Like-named read-outs stand apart in the source and are kept apart here.

Assays:
Assay type in all cases: biochemical
PI3K α (p110α/p85α) = target: T1, PI3K α (p110α/p85α) (Homo sapiens, UniProt P42336); test: PI 3-Kinase (human) HTRF assay, PI3K α; details: read-out: PI3K α IC50
T1 construct: purchased Upstate / Millipore Corporation

PI3K δ = target: T2, PI3K δ (Homo sapiens, UniProt O00329); test: PI 3-Kinase (human) HTRF assay, PI3K δ
T2 construct: purchased Upstate / Millipore Corporation

PI3K γ (p110γ) = target: T3, PI3K γ (p110γ) (Homo sapiens, UniProt P48736); test: PI 3-Kinase (human) HTRF assay, PI3K γ
T3 construct: purchased Upstate / Millipore Corporation

PI3K β (p110β/p85α) = target: T4, PI3K β (p110β/p85α) (Homo sapiens, UniProt P42338); test: PI 3-Kinase (human) HTRF assay, PI3K β; details: read-out: PI3K β IC50
T4 construct: purchased Upstate / Millipore Corporation
T4 sequence (P42338 whole entry): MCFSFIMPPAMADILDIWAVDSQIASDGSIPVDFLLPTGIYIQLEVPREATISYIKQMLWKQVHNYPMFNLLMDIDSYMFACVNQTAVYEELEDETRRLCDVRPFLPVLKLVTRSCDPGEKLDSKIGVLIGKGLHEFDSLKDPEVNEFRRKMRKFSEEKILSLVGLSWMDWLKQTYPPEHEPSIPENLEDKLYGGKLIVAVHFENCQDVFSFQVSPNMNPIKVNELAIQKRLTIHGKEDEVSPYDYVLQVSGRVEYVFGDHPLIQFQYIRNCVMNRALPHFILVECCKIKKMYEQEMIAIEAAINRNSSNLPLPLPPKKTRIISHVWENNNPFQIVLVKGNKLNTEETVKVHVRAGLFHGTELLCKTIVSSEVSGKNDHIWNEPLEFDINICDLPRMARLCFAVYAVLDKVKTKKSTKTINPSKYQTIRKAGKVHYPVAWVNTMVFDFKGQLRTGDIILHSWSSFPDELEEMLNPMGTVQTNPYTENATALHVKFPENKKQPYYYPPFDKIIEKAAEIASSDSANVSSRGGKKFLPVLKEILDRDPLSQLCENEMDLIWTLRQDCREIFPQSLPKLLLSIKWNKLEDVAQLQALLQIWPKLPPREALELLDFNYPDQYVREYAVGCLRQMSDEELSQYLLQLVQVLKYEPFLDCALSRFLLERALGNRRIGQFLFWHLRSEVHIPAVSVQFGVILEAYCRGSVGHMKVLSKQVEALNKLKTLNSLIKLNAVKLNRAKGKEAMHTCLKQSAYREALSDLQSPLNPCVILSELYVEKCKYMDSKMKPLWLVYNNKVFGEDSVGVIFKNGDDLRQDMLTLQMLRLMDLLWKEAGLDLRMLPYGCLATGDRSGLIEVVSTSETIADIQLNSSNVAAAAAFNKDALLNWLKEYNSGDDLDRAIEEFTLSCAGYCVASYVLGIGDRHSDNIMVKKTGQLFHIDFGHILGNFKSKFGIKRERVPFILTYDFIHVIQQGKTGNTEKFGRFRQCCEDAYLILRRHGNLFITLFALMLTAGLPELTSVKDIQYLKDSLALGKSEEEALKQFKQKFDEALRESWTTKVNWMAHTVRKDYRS
T4 sequence (P27986 whole entry partner): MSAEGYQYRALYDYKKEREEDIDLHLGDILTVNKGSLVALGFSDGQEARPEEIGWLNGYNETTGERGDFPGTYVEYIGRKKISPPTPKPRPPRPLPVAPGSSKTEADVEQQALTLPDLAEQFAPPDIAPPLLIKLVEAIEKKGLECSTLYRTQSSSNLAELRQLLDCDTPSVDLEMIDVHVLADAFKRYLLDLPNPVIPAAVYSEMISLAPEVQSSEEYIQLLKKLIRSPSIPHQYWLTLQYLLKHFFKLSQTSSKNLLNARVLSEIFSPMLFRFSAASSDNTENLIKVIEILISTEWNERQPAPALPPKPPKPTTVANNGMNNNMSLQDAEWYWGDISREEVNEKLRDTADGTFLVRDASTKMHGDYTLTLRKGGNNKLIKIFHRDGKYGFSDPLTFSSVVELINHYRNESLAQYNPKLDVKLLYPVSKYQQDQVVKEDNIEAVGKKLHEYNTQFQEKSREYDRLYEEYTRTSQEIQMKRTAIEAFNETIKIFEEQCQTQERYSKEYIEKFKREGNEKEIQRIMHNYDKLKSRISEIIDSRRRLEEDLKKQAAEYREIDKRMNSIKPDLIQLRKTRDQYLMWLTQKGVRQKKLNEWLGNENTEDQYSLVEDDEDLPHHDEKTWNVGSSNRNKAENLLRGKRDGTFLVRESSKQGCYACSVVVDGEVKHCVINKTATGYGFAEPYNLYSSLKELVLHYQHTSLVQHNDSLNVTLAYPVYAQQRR

T1 sequence (P42336 whole entry): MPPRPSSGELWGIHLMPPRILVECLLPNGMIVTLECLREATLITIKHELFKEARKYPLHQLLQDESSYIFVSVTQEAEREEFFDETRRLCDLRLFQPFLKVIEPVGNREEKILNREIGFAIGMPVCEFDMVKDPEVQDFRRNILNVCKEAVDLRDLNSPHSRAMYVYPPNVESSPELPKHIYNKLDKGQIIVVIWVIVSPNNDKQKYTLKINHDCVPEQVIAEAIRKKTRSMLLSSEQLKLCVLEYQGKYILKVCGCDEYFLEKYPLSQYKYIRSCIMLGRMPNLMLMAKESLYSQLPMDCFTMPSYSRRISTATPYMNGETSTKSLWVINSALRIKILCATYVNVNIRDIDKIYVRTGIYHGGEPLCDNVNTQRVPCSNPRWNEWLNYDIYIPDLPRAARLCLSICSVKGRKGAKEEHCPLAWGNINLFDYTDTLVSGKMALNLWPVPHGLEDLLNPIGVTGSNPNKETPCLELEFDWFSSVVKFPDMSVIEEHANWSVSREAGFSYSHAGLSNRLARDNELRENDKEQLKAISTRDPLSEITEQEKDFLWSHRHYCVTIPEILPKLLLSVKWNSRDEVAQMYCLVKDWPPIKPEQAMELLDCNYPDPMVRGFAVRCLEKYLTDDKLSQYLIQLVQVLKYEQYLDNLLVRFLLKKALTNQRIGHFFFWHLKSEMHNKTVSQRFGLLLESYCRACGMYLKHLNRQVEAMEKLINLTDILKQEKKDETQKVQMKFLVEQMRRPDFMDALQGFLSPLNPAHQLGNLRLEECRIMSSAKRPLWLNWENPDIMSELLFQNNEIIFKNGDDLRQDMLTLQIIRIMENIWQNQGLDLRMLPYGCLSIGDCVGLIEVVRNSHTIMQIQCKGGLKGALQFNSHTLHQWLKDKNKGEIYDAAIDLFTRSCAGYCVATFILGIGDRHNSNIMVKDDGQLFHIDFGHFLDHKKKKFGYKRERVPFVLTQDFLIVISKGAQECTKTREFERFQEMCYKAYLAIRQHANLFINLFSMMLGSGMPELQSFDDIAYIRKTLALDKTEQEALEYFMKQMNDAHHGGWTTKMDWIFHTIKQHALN
T1 sequence (P27986 whole entry partner): as the sequence (P27986 whole entry partner) above
T2 sequence (O00329 whole entry): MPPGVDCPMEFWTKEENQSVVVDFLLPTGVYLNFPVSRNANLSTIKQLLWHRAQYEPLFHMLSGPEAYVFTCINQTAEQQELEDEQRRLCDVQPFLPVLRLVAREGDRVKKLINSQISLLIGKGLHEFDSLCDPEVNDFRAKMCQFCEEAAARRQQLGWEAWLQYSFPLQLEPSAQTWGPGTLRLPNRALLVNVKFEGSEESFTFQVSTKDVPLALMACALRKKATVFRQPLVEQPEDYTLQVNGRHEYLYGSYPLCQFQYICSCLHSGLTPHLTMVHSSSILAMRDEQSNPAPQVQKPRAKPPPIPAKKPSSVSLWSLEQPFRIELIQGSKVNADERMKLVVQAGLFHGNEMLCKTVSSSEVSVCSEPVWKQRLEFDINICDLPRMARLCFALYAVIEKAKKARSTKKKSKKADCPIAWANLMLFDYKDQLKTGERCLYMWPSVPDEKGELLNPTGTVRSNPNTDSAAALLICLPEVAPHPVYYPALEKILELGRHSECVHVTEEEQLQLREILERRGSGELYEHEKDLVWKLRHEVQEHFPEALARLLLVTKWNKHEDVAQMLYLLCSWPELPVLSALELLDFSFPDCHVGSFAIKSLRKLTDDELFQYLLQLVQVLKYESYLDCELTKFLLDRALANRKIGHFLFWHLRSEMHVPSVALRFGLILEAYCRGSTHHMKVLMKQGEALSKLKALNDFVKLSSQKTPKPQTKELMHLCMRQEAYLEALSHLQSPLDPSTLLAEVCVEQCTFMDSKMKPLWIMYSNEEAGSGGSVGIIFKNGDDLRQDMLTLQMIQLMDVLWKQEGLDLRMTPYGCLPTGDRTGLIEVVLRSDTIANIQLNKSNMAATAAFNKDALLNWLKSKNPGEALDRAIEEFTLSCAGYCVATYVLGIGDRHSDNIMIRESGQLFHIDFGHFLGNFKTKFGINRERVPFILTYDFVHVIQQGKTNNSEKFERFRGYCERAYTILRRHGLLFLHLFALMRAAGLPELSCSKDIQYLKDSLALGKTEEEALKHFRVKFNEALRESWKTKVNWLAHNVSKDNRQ
T2 sequence (P27986 whole entry partner): as the sequence (P27986 whole entry partner) above
T3 sequence (P48736 whole entry): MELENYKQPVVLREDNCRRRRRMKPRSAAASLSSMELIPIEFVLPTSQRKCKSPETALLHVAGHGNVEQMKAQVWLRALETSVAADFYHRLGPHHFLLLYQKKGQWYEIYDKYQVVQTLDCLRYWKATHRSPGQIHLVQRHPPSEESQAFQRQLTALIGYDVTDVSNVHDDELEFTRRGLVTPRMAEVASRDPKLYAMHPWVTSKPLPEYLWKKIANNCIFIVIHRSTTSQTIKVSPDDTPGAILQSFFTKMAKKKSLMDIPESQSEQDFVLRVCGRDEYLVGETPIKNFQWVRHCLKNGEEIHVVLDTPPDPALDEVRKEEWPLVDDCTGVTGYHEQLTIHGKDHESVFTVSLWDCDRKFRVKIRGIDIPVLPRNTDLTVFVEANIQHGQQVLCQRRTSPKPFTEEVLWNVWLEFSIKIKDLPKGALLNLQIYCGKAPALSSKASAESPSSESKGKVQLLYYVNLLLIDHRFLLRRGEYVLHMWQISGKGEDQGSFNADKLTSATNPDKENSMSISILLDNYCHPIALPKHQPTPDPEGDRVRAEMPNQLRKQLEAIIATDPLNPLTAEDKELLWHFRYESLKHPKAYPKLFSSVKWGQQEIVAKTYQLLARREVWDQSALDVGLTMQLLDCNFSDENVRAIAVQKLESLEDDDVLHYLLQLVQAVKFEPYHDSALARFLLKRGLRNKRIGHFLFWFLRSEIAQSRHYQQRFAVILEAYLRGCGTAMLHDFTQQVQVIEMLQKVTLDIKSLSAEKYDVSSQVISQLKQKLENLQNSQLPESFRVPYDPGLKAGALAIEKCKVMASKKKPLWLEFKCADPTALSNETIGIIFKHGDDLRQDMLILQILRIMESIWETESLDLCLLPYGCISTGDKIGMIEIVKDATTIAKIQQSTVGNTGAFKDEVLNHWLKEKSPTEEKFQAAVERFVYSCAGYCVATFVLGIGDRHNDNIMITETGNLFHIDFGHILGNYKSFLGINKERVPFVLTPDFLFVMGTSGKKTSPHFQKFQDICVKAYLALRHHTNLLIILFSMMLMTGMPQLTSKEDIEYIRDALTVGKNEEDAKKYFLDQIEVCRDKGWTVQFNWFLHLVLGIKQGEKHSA

SMILES | IC50 (PI3K α (p110α/p85α)) [nM] | IC50 (PI3K δ; read-out: PI3K δ IC50) [nM] | IC50 (PI3K γ (p110γ); read-out: PI3K γ IC50) [nM] | IC50 (PI3K β (p110β/p85α)) [nM] | IC50 (PI3K δ) [nM] | IC50 (PI3K γ (p110γ); PI3K γ IC50 (nM)) [nM]
Nc1nc2cc(-c3ccc4ncc(N5CCN(CC6CC6)CC5)nc4c3)ccc2o1 [Compound 153] | < 100 | < 1000 | < 1000 | < 100 | – | –
CNC(=O)N1CCN(c2cnc3ccc(-c4ccc5oc(N)nc5c4)cc3n2)CC1 [Compound 154] | < 100 | < 10000 | < 100 | < 1000 | – | –
CN1CCC(N(C)c2ncnc3ccc(-c4ccc5oc(N)nc5c4)cc23)CC1 [Compound 155] | < 100 | – | – | < 100 | < 1000 | < 100
CN1CCN(C(=O)c2cnc3ccc(-c4ccc5oc(N)nc5c4)cc3n2)CC1 [Compound 157] | < 10000 | > 10000 | > 10000 | > 10000 | – | –
Nc1nc2cc(-c3ccc4ncc(C(=O)N5CCOCC5)nc4c3)ccc2o1 [Compound 158] | < 10000 | > 10000 | > 10000 | > 10000 | – | –
CN1CCC(NC(=O)c2cnc3ccc(-c4ccc5oc(N)nc5c4)cn23)CC1 [Compound 159] | < 100 | < 100 | < 1000 | < 1000 | – | –
CC(C)N1CCN(C(=O)c2cnc3ccc(-c4ccc5oc(N)nc5c4)cn23)CC1 [Compound 160] | < 100 | > 10000 | > 10000 | < 10000 | – | –
Nc1nc2cc(-c3ccc4ncc(C(=O)N5CCC(O)CC5)n4c3)ccc2o1 [Compound 162] | < 1000 | > 10000 | < 10000 | > 10000 | – | –
Nc1nc2cc(-c3ccc4ncc(C(=O)N5CCC(N6CCOCC6)CC5)n4c3)ccc2o1 [Compound 163] | < 1000 | < 10000 | < 10000 | < 10000 | – | –
CC1CN(C(=O)c2cnc3ccc(-c4ccc5oc(N)nc5c4)cn23)CCN1 (stereo not drawn) [Compound 164] | < 1000 | > 10000 | > 10000 | < 1000 | – | –
CN1CCC(N(C)C(=O)c2cnc3ccc(-c4ccc5oc(N)nc5c4)cn23)CC1 [Compound 165] | < 1000 | < 10000 | > 10000 | < 10000 | – | –
CN(CCN1CCOCC1)c1cnc2ccc(-c3ccc4oc(N)nc4c3)cc2n1 [Compound 166] | < 1000 | > 10000 | < 10000 | < 10000 | – | –
Nc1nc2cc(-c3ccc4ncc(-c5ccc(N6CCOCC6)nc5)nc4c3)ccc2o1 [Compound 167] | < 10000 | > 10000 | > 10000 | > 10000 | – | –
Nc1nc2cc(-c3ccc4ncc(N5CCC(N)CC5)nc4c3)ccc2o1 [Compound 168] | < 100 | < 10000 | > 10000 | < 1000 | – | –
CN(C)C1CCN(c2cnc3ccc(-c4ccc5oc(N)nc5c4)cc3n2)CC1 [Compound 172] | < 100 | < 100 | < 1000 | < 100 | – | –
Cc1nccn1-c1cnc2ccc(-c3ccc4oc(N)nc4c3)cc2n1 [Compound 174] | < 100 | < 10000 | < 100 | < 1000 | – | –
Nc1nc2cc(-c3ccc4ncc(N5CCCC5)nc4c3)ccc2o1 [Compound 176] | < 100 | < 1000 | < 100 | < 1000 | – | –
Nc1nc2cc(-c3ccc4ncc(-c5ccccc5)nc4c3)ccc2o1 [Compound 180] | < 1000 | > 10000 | > 10000 | > 10000 | – | –
CS(=O)(=O)CCN1CCC(Nc2cnc3ccc(-c4ccc5oc(N)nc5c4)cc3n2)CC1 [Compound 181] | < 100 | < 1000 | < 100 | < 10000 | – | –
CC(C)(C)N1CCN(c2cnc3ccc(-c4ccc5oc(N)nc5c4)cc3n2)CC1 [Compound 182] | < 100 | < 1000 | < 1000 | < 1000 | – | –
CCn1cnc2ccc(-c3ccc4oc(N)nc4c3)cc2c1=O [Compound 183] | < 100 | < 10000 | < 100 | < 10000 | – | –
Nc1nc2cc(-c3ccc4ncn(CCO)c(=O)c4c3)ccc2o1 [Compound 184] | < 100 | > 10000 | < 1000 | < 10000 | – | –
Cc1ncccc1-c1cnc2ccc(-c3ccc4oc(N)nc4c3)cc2n1 [Compound 185] | < 1000 | > 10000 | > 10000 | > 10000 | – | –
Nc1nc2cc(-c3ccc4ncc(C(=O)N5CCCC5)n4c3)ccc2o1 [Compound 186] | < 100 | < 1000 | < 100 | < 10000 | – | –
Nc1nc2cc(-c3ccc4ncc(C(=O)NC5CC5)n4c3)ccc2o1 [Compound 187] | < 100 | < 1000 | < 100 | < 10000 | – | –
Nc1nc2cc(-c3ccc4ncc(C(=O)NCCO)n4c3)ccc2o1 [Compound 189] | < 100 | < 1000 | < 1000 | < 1000 | – | –

SMILES | IC50 (PI3K α (p110α/p85α)) [nM] | IC50 (PI3K δ; read-out: PI3K δ IC50) [nM] | IC50 (PI3K γ (p110γ); read-out: PI3K γ IC50) [nM] | IC50 (PI3K β (p110β/p85α)) [nM] | IC50 (PI3K δ) [nM] | IC50 (PI3K γ (p110γ); PI3K γ IC50 (nM)) [nM]
CC(C)(C)N1CCN(C(=O)c2cnc3ccc(-c4ccc5oc(N)nc5c4)cn23)CC1 [Compound 191] | < 100 | < 10000 | < 10000 | < 10000 | – | –
NCC(=O)N1CCN(c2cnc3ccc(-c4ccc5oc(N)nc5c4)cc3n2)CC1 [Compound 192] | < 100 | < 1000 | < 1000 | < 1000 | – | –
COC(=O)N1CCN(c2cnc3ccc(-c4ccc5oc(N)nc5c4)cc3n2)CC1 [Compound 193] | < 100 | < 10000 | < 100 | < 1000 | – | –
Cc1ccc(-c2cnc3ccc(-c4ccc5oc(N)nc5c4)cc3n2)cn1 [Compound 194] | < 100 | > 10000 | < 100 | > 10000 | – | –
Nc1nc2cc(-c3ccc4ncc(-c5ccccn5)nc4c3)ccc2o1 [Compound 195] | < 1000 | > 10000 | < 100 | < 10000 | – | –
Nc1nc2cc(-c3ccc4ncc(C(=O)N5CCCCC5)n4c3)ccc2o1 [Compound 196] | < 1000 | > 10000 | < 10000 | < 10000 | – | –
Nc1nc2cc(-c3ccc4ncc(C(=O)N5CCC5)n4c3)ccc2o1 [Compound 197] | < 100 | < 10000 | < 100 | < 10000 | – | –
CS(=O)(=O)CCN1CCC(NC(=O)c2cnc3ccc(-c4ccc5oc(N)nc5c4)cn23)CC1 [Compound 199] | < 100 | < 100 | < 100 | < 10000 | – | –
Nc1nc2cc(-c3ccc4ncc(C(=O)N5CC(O)C5)n4c3)ccc2o1 [Compound 200] | < 100 | < 10000 | < 100 | < 10000 | – | –
CC1CN(C(=O)c2cnc3ccc(-c4ccc5oc(N)nc5c4)cn23)CCO1 (stereo not drawn) [Compound 201] | < 100 | > 10000 | < 10000 | < 10000 | – | –
CN1CCC(NC(=O)c2cnc3ccc(-c4ccc5oc(N)nc5c4)nn23)CC1 [Compound 203] | < 100 | < 1000 | < 100 | < 100 | – | –
Nc1nc2cc(-c3ccc4ncn(C5CCC5)c(=O)c4c3)ccc2o1 [Compound 205] | < 100 | > 10000 | > 10000 | > 10000 | – | –
CC(C)n1cnc2ccc(-c3ccc4oc(N)nc4c3)cc2c1=O [Compound 206] | < 100 | > 10000 | < 1000 | > 10000 | – | –
C[C@H](N)C(=O)N1CCN(c2cnc3ccc(-c4ccc5oc(N)nc5c4)cc3n2)CC1 [Compound 207] | < 100 | < 1000 | < 100 | < 100 | – | –
C[C@@H](N)C(=O)N1CCN(c2cnc3ccc(-c4ccc5oc(N)nc5c4)cc3n2)CC1 [Compound 208] | < 100 | < 1000 | < 10000 | < 1000 | – | –
Nc1nc2cc(-c3ccc4ncc(N5CCC(O)C5)nc4c3)ccc2o1 (stereo not drawn) [Compound 209] | < 100 | < 10000 | < 100 | < 1000 | – | –
Nc1ncc(-c2cnc3ccc(-c4ccc5oc(N)nc5c4)cc3n2)cn1 [Compound 210] | < 1000 | > 10000 | > 10000 | > 10000 | – | –
CC(=O)N1CCC(Nc2ncnc3ccc(-c4ccc5oc(N)nc5c4)nc23)CC1 [Compound 211] | < 100 | < 100 | < 100 | < 100 | – | –
CN1CCC(Nc2ncnc3ccc(-c4ccc5oc(N)nc5c4)nc23)CC1 [Compound 212] | < 100 | < 1000 | < 1000 | < 1000 | – | –
CNC(=O)C1CN(c2cnc3ccc(-c4ccc5oc(N)nc5c4)cc3n2)C1 [Compound 214] | < 100 | < 10000 | < 1000 | < 100 | – | –
Nc1nc2cc(-c3ccc4ncc(N5CC(C(=O)NC6CC6)C5)nc4c3)ccc2o1 [Compound 215] | < 100 | < 10000 | < 1000 | < 1000 | – | –
CN(C)CC(=O)N1CCN(c2cnc3ccc(-c4ccc5oc(N)nc5c4)cc3n2)CC1 [Compound 217] | < 100 | < 1000 | < 1000 | < 1000 | – | –
CCN(CC)CCNc1cnc2ccc(-c3ccc4oc(N)nc4c3)cc2n1 [Compound 218] | < 1000 | < 1000 | < 10000 | < 1000 | – | –
Nc1nc2cc(-c3ccc4ncc(NCCN5CCCC5)nc4c3)ccc2o1 [Compound 219] | < 1000 | < 1000 | < 1000 | < 1000 | – | –
CCN(CC)CCCNc1cnc2ccc(-c3ccc4oc(N)nc4c3)cc2n1 [Compound 220] | < 100 | < 100 | < 1000 | < 1000 | – | –
